Assay in all cases: relative viability (nuclei count vs DMSO), 5 days (fraction); higher = more cells survive
Compound in one assay: C1CC(C1)(C(=O)O)C(=O)O.[NH2-].[NH2-].[Pt+2] [Carboplatin]
The essentials: (§1)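 After an overnight hold at 37 °C, lung cancer cell lines in 1536-well plates were pinned with five library-drug doses (not always all listed), each √10 from the next, on vehicle-anchored plates. The cells stayed 5 days without fresh medium, then a one-step fix, permeabilisation and Hoechst stain preceded 4× imaging and MetaXpress nuclear counts. A plate passed only with control CV under 25% and at least one doubling. Viability is the median, over plates, of treated-well nuclei relative to vehicle-well nuclei.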

Compound in a further assay: CC[C@H](C)N1C=C(C2=C(C=C(C=C21)C3=CN=C(C=C3)N4CCNCC4)C(=O)NCC5=C(C=C(NC5=O)C)C)C [GSK126]
The procedure, abridged:
as §1

Compound in the next assay: NS(=O)(=O)OC[C@@H]1C[C@@H](n2ccc3c(N[C@H]4CCc5ccccc54)ncnc32)C[C@@H]1O [MLN4924]
The essentials: as §1

Compound in the assay “MLN4924 + Phenformin”: NS(=O)(=O)OC[C@@H]1C[C@@H](n2ccc3c(N[C@H]4CCc5ccccc54)ncnc32)C[C@@H]1O [MLN4924] + N=C(N)NC(=N)NCCc1ccccc1 [Phenformin] (partner 250 µM)
The essentials:
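The day after seeding in 1536-well plates, lung cancer cell lines were treated by pin tool with a single drug, or with a fixed anchor-drug dose together with five library-drug doses (not always all listed) in √10 steps. After 5 days, a combined fix-and-stain solution (final 0.05% Triton X-100, 1% formaldehyde, 1 ug/ml Hoechst) was added. Nuclei counted on 4× images gave relative viability as treated counts over vehicle counts, reported as the median of duplicate plates.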

Our source for the relative viability values is the supplement of paper PMC10307832.

Take UMC-11: the relative viability in the assay with Carboplatin (0.08 µM) was 0.982; in the assay with Carboplatin (0.253 µM), 0.996; with Carboplatin (0.8 µM), 1.01; with Carboplatin (2.53 µM) it was 0.923; with Carboplatin (8 µM) it was 0.767; with GSK126 (0.08 µM), 1.09. The relative viability in the assay with GSK126 (0.253 µM) turned out to be 0.982; with GSK126 (0.8 µM), 1.02; with GSK126 (2.53 µM), 1.01; in the assay with GSK126 (8 µM), 1.11; in the assay with MLN4924 (0.04 µM) it was 0.678; with MLN4924 (0.1265 µM) it was 0.463. The relative viability stood at 0.383 in the assay with MLN4924 (0.4 µM); 0.189 with MLN4924 (1.265 µM); 0.19 with MLN4924 (4 µM); 0.322 with MLN4924 + Phenformin (first compound 0.04 µM); 0.287 with MLN4924 + Phenformin (first compound 0.1265 µM); 0.266 with MLN4924 + Phenformin (first compound 0.4 µM). For the same cell line, the relative viability in the assay with MLN4924 + Phenformin (first compound 1.265 µM) stood at 0.185; with MLN4924 + Phenformin (first compound 4 µM), 0.189.
